Laboratory results published in PubChem BioAssay (NCI).
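Each compound was tested at five concentrations against cells in 96-well plates for 48 hours. TGI: total growth inhibition.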 Where a SMILES comes first, the peptide text is derived from it. The star is where a group is joined. Cbz = O=C(OCc1ccccc1)*

Legend:
Experiment in all cases: NCI anticancer screen, dose series, 48 h
KM12 colon = system: KM12 colon
CCRF-CEM leukemia = system: CCRF-CEM leukemia
BT-549 breast = system: BT-549 breast
RPMI-8226 leukemia = system: RPMI-8226 leukemia
MCF7 breast = system: MCF7 breast
HOP-62 NSCLC = system: HOP-62 NSCLC
DU-145 prostate = system: DU-145 prostate
SF-539 CNS = system: SF-539 CNS
NCI-H460 lung = system: NCI-H460 lung
OVCAR-8 ovarian = system: OVCAR-8 ovarian
786-0 renal = system: 786-0 renal
SF-295 CNS = system: SF-295 CNS
UO-31 renal = system: UO-31 renal
COLO 205 colon = system: COLO 205 colon
SNB-75 CNS = system: SNB-75 CNS
MDA-MB-231 breast = system: MDA-MB-231 breast
K-562 leukemia = system: K-562 leukemia
HCT-15 colon = system: HCT-15 colon
NCI-H226 lung = system: NCI-H226 lung
CAKI-1 renal = system: CAKI-1 renal

Structure (SMILES)	TGI (KM12 colon)	TGI (CCRF-CEM leukemia)	TGI (BT-549 breast)	TGI (RPMI-8226 leukemia)	TGI (MCF7 breast)	TGI (HOP-62 NSCLC)	TGI (DU-145 prostate)	TGI (SF-539 CNS)	TGI (NCI-H460 lung)	TGI (OVCAR-8 ovarian)	TGI (786-0 renal)	TGI (SF-295 CNS)	TGI (UO-31 renal)	TGI (COLO 205 colon)	TGI (SNB-75 CNS)	TGI (MDA-MB-231 breast)	TGI (K-562 leukemia)	TGI (HCT-15 colon)	TGI (NCI-H226 lung)	TGI (CAKI-1 renal)
CCN1C[C@]2(C)CC[C@H](OCc3ccccc3)C34C5C[C@@H]6CC[C@](O)(C(C[C@@H]32)C14)C5[C@H]6OCc1ccccc1 (stereo not given in full)	> 100 µM	> 100 µM	> 100 µM	> 100 µM	> 100 µM	> 100 µM	> 100 µM	> 100 µM	> 100 µM	> 100 µM	> 100 µM	> 100 µM	> 100 µM	> 100 µM	> 100 µM	> 100 µM	> 100 µM	> 100 µM	> 100 µM	–
Nc1ccccc1OCc1cc(=O)c(OCc2ccccc2)co1	> 100 µM	> 100 µM	> 100 µM	> 100 µM	89 µM	> 100 µM	> 100 µM	65.1 µM	> 100 µM	> 100 µM	76.5 µM	95.1 µM	–	44.9 µM	–	55.8 µM	> 100 µM	> 100 µM	–	> 100 µM
COc1cccc(C[C@H]2COC(=O)[C@]2(O)Cc2cccc(OC)c2)c1	> 100 µM	> 100 µM	> 100 µM	> 100 µM	–	> 100 µM	> 100 µM	> 100 µM	> 100 µM	> 100 µM	> 100 µM	> 100 µM	> 100 µM	> 100 µM	> 100 µM	> 100 µM	> 100 µM	> 100 µM	> 100 µM	> 100 µM
O=C(n1c(=O)n(-c2ccc(Cl)cc2)c(=O)n1C(=O)C(Cl)(Cl)Cl)C(Cl)(Cl)Cl	> 100 µM	> 100 µM	> 100 µM	> 100 µM	> 100 µM	> 100 µM	> 100 µM	> 100 µM	> 100 µM	> 100 µM	> 100 µM	> 100 µM	> 100 µM	> 100 µM	–	> 100 µM	> 100 µM	–	–	> 100 µM
O=C1CCc2cc3c(cc21)CC1(Cc2cc4c(cc2C1)CCCC4)C3	> 100 µM	> 100 µM	> 100 µM	> 100 µM	> 100 µM	> 100 µM	> 100 µM	> 100 µM	> 100 µM	> 100 µM	–	> 100 µM	> 100 µM	> 100 µM	75.1 µM	> 100 µM	> 100 µM	> 100 µM	–	–
[O-]c1c[n+](CC[n+]2cc([O-])on2)no1	> 100 µM	> 100 µM	> 100 µM	> 100 µM	> 100 µM	> 100 µM	> 100 µM	–	> 100 µM	> 100 µM	> 100 µM	> 100 µM	> 100 µM	> 100 µM	> 100 µM	> 100 µM	> 100 µM	> 100 µM	–	> 100 µM
O=CC1C[C@@H](N2C(=O)O[C@@H](c3ccccc3)[C@H]2c2ccccc2)[C@@H]1COCc1ccccc1 (stereo not given in full)	> 100 µM	–	43.3 µM	> 100 µM	55.1 µM	44.5 µM	35.7 µM	37 µM	41.7 µM	55.9 µM	31.2 µM	39.9 µM	29.3 µM	42 µM	–	30.7 µM	> 100 µM	36.3 µM	42.2 µM	> 100 µM
CC[N+]1(C)CCC(O)(/C=C/c2ccc(Cl)cc2)C(C(=O)/C=C/c2ccc(Cl)cc2)C1 (stereo not given)	10.3 µM	3.85 µM	39.3 µM	–	> 36.6 µM	39.3 µM	27.6 µM	> 20.5 µM	> 28.2 µM	51 µM	> 26.5 µM	37 µM	20.2 µM	> 26.5 µM	26.7 µM	> 31.5 µM	5.71 µM	> 51.6 µM	–	3.71 µM
CC(C)(C)N(Cc1ccoc1)C(=O)/C=C\S(=O)c1ccccc1 (stereo not given)	34.5 µM	> 100 µM	30.3 µM	89.6 µM	36.7 µM	36.6 µM	25.7 µM	42.9 µM	–	32.1 µM	67 µM	> 100 µM	27.6 µM	43.9 µM	–	42.3 µM	> 100 µM	51.4 µM	48.6 µM	27.6 µM
COc1cc(C2c3cc4c(cc3OC(NCc3ccccc3)C2C)OCO4)cc(OC)c1OC (stereo not given)	5.69 µM	26.5 µM	16.4 µM	24.2 µM	48.7 µM	> 64 µM	> 100 µM	0.817 µM	> 34.7 µM	> 100 µM	44.1 µM	0.673 µM	26.4 µM	0.726 µM	–	2.06 µM	> 37.8 µM	> 44.4 µM	7.33 µM	0.982 µM
CN(C)/C=C/c1ccncc1	> 100 µM	> 100 µM	> 100 µM	> 100 µM	> 100 µM	> 100 µM	> 100 µM	> 100 µM	> 100 µM	> 100 µM	> 100 µM	> 100 µM	> 100 µM	> 100 µM	–	> 100 µM	> 100 µM	> 100 µM	> 100 µM	> 100 µM
Clc1ccccc1-c1nnc2c(-c3ccccc3)nc3ccccc3n12	> 100 µM	83.2 µM	> 100 µM	> 100 µM	> 100 µM	> 100 µM	> 100 µM	> 100 µM	> 100 µM	–	> 100 µM	–	–	> 100 µM	–	> 100 µM	> 100 µM	> 100 µM	> 100 µM	–
CN(C)CCCNc1ccc2nnn3c4ccc(OC(=O)c5ccc([N+](=O)[O-])cc5)cc4c(=O)c1c23	21.3 µM	5.39 µM	35.8 µM	18.6 µM	> 38.9 µM	> 33.1 µM	18.3 µM	19.3 µM	17.9 µM	20.8 µM	16.6 µM	20.5 µM	21 µM	18.2 µM	–	23.3 µM	18.9 µM	24.1 µM	–	7.59 µM
O=C(CN1CCOCC1)Nc1ccc2c(c1)C1Oc3ccccc3CC1CO2 (stereo not given)	> 100 µM	> 100 µM	> 100 µM	> 100 µM	> 100 µM	> 100 µM	> 100 µM	> 100 µM	–	> 100 µM	> 100 µM	> 100 µM	> 100 µM	> 100 µM	–	> 100 µM	> 100 µM	> 100 µM	> 100 µM	> 100 µM
CCOC(=O)c1nc2ccccc2nc1Oc1ccc(OC)cc1	> 100 µM	> 100 µM	> 100 µM	> 100 µM	> 100 µM	> 100 µM	> 100 µM	> 100 µM	> 100 µM	> 100 µM	> 100 µM	> 100 µM	> 100 µM	> 100 µM	–	> 100 µM	> 100 µM	> 100 µM	> 100 µM	–
C/C(=N/NC(=S)NCCc1ccccn1)c1cnccn1	> 100 µM	68.9 µM	> 100 µM	80 µM	–	> 100 µM	> 100 µM	–	> 100 µM	–	57.2 µM	63.8 µM	90.2 µM	> 100 µM	> 100 µM	> 100 µM	–	–	–	> 100 µM
O=C(Cc1ccccc1)NNc1nc(NNC(=O)c2ccncc2)nc(Nc2ccc(Cl)cc2)n1	> 10 µM	> 10 µM	> 10 µM	> 10 µM	> 10 µM	> 10 µM	> 10 µM	> 10 µM	–	> 10 µM	> 10 µM	–	> 10 µM	> 10 µM	> 10 µM	> 10 µM	> 10 µM	> 10 µM	–	> 10 µM
COc1ccc2nc3ccc(OC)cc3c(SCC3CO3)c2c1 (stereo not given)	34.4 µM	> 100 µM	30.4 µM	74.6 µM	26.6 µM	> 100 µM	–	23.7 µM	31 µM	25.7 µM	23.7 µM	> 100 µM	24.8 µM	41.8 µM	> 100 µM	28.7 µM	54.1 µM	33.6 µM	> 100 µM	19.1 µM
O=C1C(=C(C(=O)c2ccccc2)C(=O)c2ccccc2)OC(c2ccccc2)=C1C(=O)c1ccccc1	42.3 µM	10.9 µM	19.9 µM	24.9 µM	29.7 µM	15.6 µM	48.8 µM	22.3 µM	19.2 µM	15.7 µM	20 µM	32.1 µM	26.7 µM	25.7 µM	–	32.2 µM	95 µM	14.9 µM	16.4 µM	11.2 µM
Fc1ccc(Nc2nnc(-c3ccccn3)s2)cc1	> 100 µM	> 100 µM	> 100 µM	> 100 µM	> 100 µM	> 100 µM	> 100 µM	> 100 µM	> 100 µM	> 100 µM	> 100 µM	> 100 µM	–	> 100 µM	–	> 100 µM	–	> 100 µM	–	> 100 µM
COc1ccc(NS(=O)c2ccc(OC)cc2)cc1 (stereo not given)	24.1 µM	> 100 µM	> 100 µM	> 100 µM	> 100 µM	> 100 µM	> 100 µM	32.5 µM	> 100 µM	> 100 µM	> 100 µM	> 100 µM	48.5 µM	> 100 µM	–	> 100 µM	> 100 µM	> 100 µM	> 100 µM	> 100 µM
COc1ccc(/C(C)=N/NC(=O)c2ccncc2)cc1OC	> 10 µM	> 10 µM	> 10 µM	> 10 µM	> 10 µM	> 10 µM	> 10 µM	> 10 µM	> 10 µM	–	> 10 µM	–	> 10 µM	> 10 µM	> 10 µM	> 10 µM	> 10 µM	> 10 µM	> 10 µM	> 10 µM
COc1ccc(/C=C2\CN(C)CC3C2=NC(=S)NC3c2ccc(OC)cc2)cc1 (stereo not given)	> 65.8 µM	> 24.7 µM	> 100 µM	> 24.7 µM	> 100 µM	> 100 µM	26.4 µM	59.5 µM	59.8 µM	> 100 µM	> 68.5 µM	> 75.8 µM	> 100 µM	> 39.3 µM	–	> 59.1 µM	> 100 µM	> 100 µM	> 100 µM	> 100 µM
Cc1csc2nc3[nH]ncc3c(=O)n12	> 100 µM	> 100 µM	> 100 µM	> 100 µM	> 100 µM	> 100 µM	–	> 100 µM	> 100 µM	> 100 µM	> 100 µM	> 100 µM	> 100 µM	> 100 µM	> 100 µM	> 100 µM	> 100 µM	> 100 µM	> 100 µM	> 100 µM
CC(C)(C)c1cc(C(=O)/C=C/c2ccc3c(c2)CCO3)cc(C(C)(C)C)c1O	3.66 µM	> 31.5 µM	> 63.6 µM	4.45 µM	> 100 µM	> 93.7 µM	–	1.46 µM	1.92 µM	> 100 µM	11.2 µM	–	> 54 µM	1.58 µM	–	6.54 µM	> 100 µM	> 25.9 µM	> 28.4 µM	22.1 µM
CCOC(=O)C(CC(=O)OC)NC(=O)C(CC(=O)OC)NC(=O)C(CC(=O)OC)NC(=O)C(CC(=O)OC)NC(=O)OCc1ccccc1 (stereo not given) (Cbz-D(OMe)D(OMe)D(OMe)D(OMe)-OEt; configuration not given here)	> 100 µM	–	> 100 µM	> 100 µM	> 100 µM	> 100 µM	–	–	> 100 µM	> 100 µM	> 100 µM	–	> 100 µM	> 100 µM	> 100 µM	> 100 µM	> 100 µM	> 100 µM	> 100 µM	–
